Consider two compounds from patent US11351215B2, “Composition for preventing hair loss and stimulating hair-growth” (MOTHER″S PHARMACEUTICAL CO., LTD., priority 2018, dated 2022).

Format in all cases: in vivo, mouse
Experiment [1] deals with male C57BL/6 mice. The experiment is described as follows: Hair-growth efficacy test in catagen inhibition animal model, visual inspection with image analysis (Example 1-1). The following applies: values of individual mice. The text has this:
To proceed with the hair-growth efficacy test in the catagen inhibition animal model of Centipeda minima extract, male C57BL/6 mice (5 weeks of age) were purchased and subjected to acclimation for 1 week and selected animals weighing 16 to 21 g. In the case of an animal in which skin damage occurred during hair removal, or if the skin color was black, the growth period was already in progress, so it was inappropriate for this experiment and was excluded from the experiment.
The test group was divided into a normal group, a negative control group, a test substance-administered group, and a positive control groups 1 and 2. Each of the normal group and the negative control group had 1 mouse, the test substance-administered group had 3 mice, and the positive control group 1 had two mice, and the positive control group 2 had one mouse. […]
Further, in order to quantify the results of hair-growth efficacy visual inspection, image analysis was performed on the entire epilation site (solvent or test substance, positive control substance application site) that is black (anagen) or a site where hair-growth begins. […] The result was quantified in %. […]

Experiment [2] has as its system male C57BL/6 mice. The experiment is described as follows: Skin tissue pathology test, H&E staining (Example 1-2). The following applies: H&E stained skin tissue after end of experiment. How it is done: The skin tissue pathology test was conducted by H&E staining using Hematoxylin and Eosin, which are generally used widely. A sample was collected from the skin tissue of the sacrificed animals and the generation of hair follicles and phenomena of hair-growth were identified through fixation, washing, clearing, paraffin infiltration, embedding, microtome cutting, staining and reading processes.
In this study, Anagen_Early (A/e) indicates the state in which hair has just begun to develop and Anagen_late (A/l) and Catagen_early (C/e) indicate that hair-growth is in full swing. Anagen_late and Catagen_early have histologically similar positions of the hair bulb. When considering morphological changes according to tissue sections, it is necessary to consider that it is often unclear to distinguish there between. Nevertheless, the hair follicles in the Anagen_late and Catagen_early stages are generally considered as similar stages of development, and the results are interpreted.

Experiment [3] concerns male C57BL/6 mice. The experiment is described as follows: Hair-growth efficacy test in catagen inhibition animal model, visual inspection, Centipeda minima extracts (Example 2-1). The following applies: Day 5 after 7 days of administration (+12 day); topical 100 μL twice a day; dexamethasone-induced catagen. The text has this: To proceed with the hair-growth efficacy test in the catagen inhibition animal model of Centipeda minima extract, male C57BL/6 mice (5 weeks of age) were purchased and subjected to acclimation for 1 week and selected animals weighing 20 to 24 g. In the case of an animal in which skin damage occurred during hair removal, or if the skin color was black, the growth period was already in progress, so it was inappropriate for this experiment and was excluded from the experiment.
The test group was divided into a normal group, a negative control group, a test substance-administered group, and a positive control groups 1 and 2. The normal group had three mice, the negative control group had 4 mice, the test substance-administered group had 4 mice, and the positive control group 1 (Tofacitinib) had four mice, and the positive control group 2 (Minoxidil) had four mice. […]
Further, to quantify the results of hair-growth efficacy visual inspection, a black portion (anagen) or a region where hair-growth begins in the entire hair removal site (solvent or test substance, positive control substance application site) was visually observed. […]

The test system of experiment [4] is male C57BL/6 mice. The experiment is described as follows: Skin tissue pathology test, H&E staining (Example 2-2). The settings on record: H&E stained skin tissue, day 12. As to the method: The skin tissue pathology test was conducted on day 12 by H&E staining using Hematoxylin and Eosin, which are widely used. A sample was collected from the skin tissue of the sacrificed animals and the generation of hair follicles and phenomena of hair-growth were identified through fixation, washing, clearing, paraffin infiltration, embedding, microtome cutting, staining and reading processes.

Several values for one entry are separate records, joined by “and”; a condition that tells them apart may be missing. Equal values may be shown once.

Regarding “6-amino-1,2-dihydro-1-hydroxy-2-imino-4-phenoxypyrimidine [Minoxidil]”, the “hair-growth efficacy (image analysis of epilation site)” value with male C57BL/6 mice [1] (Day 17 after administration, 0.1% dexamethasone to maintain catagen) was 6.1% and 21.2%. Moreover, in the experiment with male C57BL/6 mice [1] (on 3 days of administration, topical 100 μL twice a day, dexamethasone-induced catagen), the “tendency to migrate to anagen (black/hair-growth area of epilation site, image analysis)” value is 0.1% and 0.3%. Also, in the experiment with male C57BL/6 mice [2], the “hair follicle generation and hair-growth efficacy (skin histology, FIG. 5)” value is “only minimal hair follicle generation and hair-growth efficacy degree”. The “Hair-growth efficacy (%)” value in the experiment with male C57BL/6 mice [3] was determined as 45%. Besides, the “hair follicle generation and hair-growth efficacy (skin histology, FIG. 9)” value with male C57BL/6 mice [4] was “only minimal hair follicle generation and hair-growth efficacy degree”.

Regarding `C[C@@H]1CCN(C(=O)CC#N)C[C@@H]1N(C)c1ncnc2[nH]ccc12` [Tofacitinib], in the experiment on male C57BL/6 mice [3], the “Hair-growth efficacy (%)” value came to 25%. For the same compound, the “hair follicle generation and hair-growth efficacy (skin histology, FIG. 9)” value in the experiment with male C57BL/6 mice [4] was “only minimal hair follicle generation and hair-growth efficacy degree”.
